Assay results taken from patent US10251869B2, “Compositions and methods of inhibiting metallo-β-lactamases” (priority 2014, dated 2019).
In brackets after ≈: the same amount, converted by molar mass. Like-named read-outs stand apart in the source and are kept apart here.

What was measured:
[1] = test system: E. coli DH10B pBCSK(−) producing R228Q variant; assay: MIC by agar dilution, E. coli DH10B producing VIM-2 R228Q; format: cell-based; conditions: Escherichia coli
Experimental: (§1) E. coli DH10B (Invitrogen, Carlsbad, Calif.) was used as a host strain for pBCSK (−) blaVIM-2, and to obtain a mutant library at position 228 by site-saturation mutagenesis, using the QuickChange XL Site-directed Mutagenesis Kit (Stratagene). Briefly, primers that capture all 19 variants at MBL position 228 were designed and PCR mutagenic reactions were conducted using pBCSK (−) blaVIM-2 as a template, and transformed into E. coli DH10B. Single colonies were selected for plasmid purification, and successful mutagenesis was verified by complete DNA sequencing.
(§2) The effect of Zn^2+ availability was also tested by agar dilution using MH supplemented with 250 μM ZnSO4 or 5 μM EDTA. Reported values are the mode of at least 3 biological replicates.

[2] = test system: E. coli DH10B pBCSK(−) producing VIM-2 (228R); assay: MIC by agar dilution, E. coli DH10B producing VIM-2; format: cell-based
Description: A forward primer containing the SacI restriction site and a reverse primer with the BamHI restriction site were used to amplify blaVIM-2 including the pET24a(+) ribosomal binding site, using plasmid pET-24a(+)-blaVIM-2 as template. The product was then subcloned into phagemid pBCSK (−) (Agilent (Santa Clara, Calif.)) using the above restriction sites, and thus placing the blaVIM-2 open reading frame under control of the lac promoter, to yield phagemid pBCSK (−) blaVIM-2.
as §1, §2

[3] = test system: E. coli pBC SK(−); assay: MIC by agar dilution, E. coli DH10B host with empty phagemid; format: cell-based; conditions: Escherichia coli
Experimental: as §1, §2

[4] = test system: E. coli DH10B pBCSK(−) producing R228K variant; assay: MIC by agar dilution, E. coli DH10B producing VIM-2 R228K; format: cell-based; conditions: Escherichia coli
Experimental: as §1, §2

[5] = molecular target: T1, VIM-24 (Escherichia coli, UniProt Q5U7L7, R205L); assay: Cefepime and ceftazidime hydrolysis in periplasm preparations, VIM-24; format: biochemical; conditions: 800 μM cefepime or 400 μM ceftazidime, 25° C.
T1 construct: which corresponds to cleavage after residues 20 (plus an additional Met residue on the N-terminus); made in house; host or cells: E. coli BL21(DE3) pLys, plasmid pET-24a(+)-blaVIM-24-S21
Experimental: (§3) Additionally, cefepime and ceftazidime hydrolysis were measured using periplasm preparations, as previously described. Briefly, periplasmic preparations of E. coli DH10B pBC SK (−) harboring blaVIM-2 or blaVIM-24 were obtained by osmotic shock with chloroform, and MBL production assessed by immunoblotting. Initial velocities of hydrolysis at high substrate concentrations (800 μM for cefepime and 400 μM for ceftazidime) were measured using equal amounts of both β-lactamases in 15 mM HEPES pH 7.5, 200 mM NaCl, supplemented with 50 μM ZnSO4, at 25° C.

[6] = test system: E. coli DH10B pBCSK(−) producing R228Y variant; assay: MIC by agar dilution, E. coli DH10B producing VIM-2 R228Y; format: cell-based; conditions: Escherichia coli
Experimental: as §1, §2

[7] = test system: E. coli DH10B pBCSK(−) producing R228P variant; assay: MIC by agar dilution, E. coli DH10B producing VIM-2 R228P; format: cell-based; conditions: Escherichia coli
Experimental: as §1, §2

[8] = molecular target: T2, VIM-2 (Escherichia coli, UniProt Q5U7L7); assay: Cefepime and ceftazidime hydrolysis in periplasm preparations, VIM-2; format: biochemical, P. aeruginosa; conditions: 800 μM cefepime or 400 μM ceftazidime, 25° C.
T2 construct: expressed in transfected cells; host or cells: E. coli DH10B carrying pBC SK(-) blaVIM-2; periplasmic extract by osmotic shock with chloroform
Experimental: as §3

[9] = test system: E. coli DH10B pBCSK(−) producing R228M variant; assay: MIC by agar dilution, E. coli DH10B producing VIM-2 R228M; format: cell-based; conditions: Escherichia coli
Experimental: as §1, §2

[10] = test system: E. coli DH10B pBCSK(−) producing VIM-24 (R228L); assay: MIC by agar dilution, E. coli DH10B producing VIM-24; format: cell-based; conditions: Escherichia coli
Experimental: as §1, §2

[11] = molecular target: T1, VIM-24; assay: BTZ inhibition kinetics of nitrocefin hydrolysis by VIM-24; format: biochemical
Description: (§4) Analysis of BTZ inhibition kinetics. Models involving one, or two-step slow binding were considered to analyze BTZ inhibition of NFC hydrolysis by VIM-2 and VIM-24 (Scheme 1).
(§5) Here E represents the free enzyme, and I the free inhibitor, EI is the final enzyme-inhibitor complex for a single step slow binding mechanism, and E*I is the enzyme-inhibitor complex formed after conformational changes in a two-step slow binding mechanism. Therefore, the dissociation constant for the EI complex (Ki), also called the inhibitor constant, is defined as Ki=k−1/k1; the dissociation constant for the E*I complex (Ki′) is defined as Ki′=k−2/k2, and the overall dissociation constant for the two-step mechanism (Ki*) is defined as Ki*=Ki/(1+([…])).
(§6) The Ki for each inhibitor was determined by direct competition assays under steady-state conditions. The initial velocity was measured in the presence of a constant concentration of enzyme (3 nM for VIM-2 and 4 nM for VIM-24) with increasing concentrations of inhibitor (5-60 μM) against a fixed concentration (5 x KM) of the indicator substrate, NCF, as previously described (42-44). The reactions were started by addition of VIM-2 or VIM-24 to substrate or to mixtures of substrate and inhibitor. Data were linearized by plotting inverse initial steady-state velocities (1/v0) against inhibitor concentration (I). Ki (observed) was determined by dividing the value for the y intercept by the slope of the line. Ki determinations were corrected to account for the affinity of NCF for the β-lactamase according to equation 3.
(§7) Measurements of association rate constants for inhibitor binding were carried out at 25° C. in 10 mM HEPES at pH 7.5 supplemented with 200 mM NaCl, 50 μM […] and 50 μg/ml BSA, in the presence of several concentrations of each compound. Reactions were then initiated by the addition of β-lactamase (3 nM VIM-2 or 4 nM VIM-24) to a mixture of 50 μM NCF and each BTZ without pre-incubation. Inhibitor association rate constants were estimated from linear extrapolation of the observed rate constant for inhibition (kobs), which was obtained by fitting progress curves of NFC hydrolysis to Eq. 4:
(§8) As previously described, the linear dependence of kobs vs. [I] at limiting I concentration approximates second-order rate constant k2/Ki. The observed second-order rate constant also includes an adjustment for competition between inhibitor and substrate binding (Eq. 5).
(§9) Also, vs calculated from the progress curves of NCF hydrolysis for each concentration of inhibitor were used to determine Ki*, according to the relationship shown in equation 6 (5). The value reported is the mean of three velocities±SD.
(§10) To further test the time-dependent inhibition mechanism of inhibitor binding, assays using dilutions of pre-formed complexes were performed. For these experiments, 1 μM of enzyme was incubated with varying concentrations of the inhibitor which allowed for complete inactivation of the enzyme during the 5 min incubation at 25° C. The reactions were then diluted 2,000-fold in 10 mM HEPES at pH 7.5 supplemented with 200 mM NaCl, 50 μM […] and 50 μg/ml BSA, which contained 50 μM NCF. Reactivation of the enzyme based on NCF hydrolysis was monitored over time. Control reaction with the free enzyme was performed in the same fashion.

[12] = test system: MBLs; assay: Assays in solution after prolonged exposure to oxidative conditions; format: biochemical; conditions: data not shown
[13] = molecular target: T3, VIM-2 (Pseudomonas aeruginosa, UniProt Q9K2N0); assay: BTZ inhibition kinetics of nitrocefin hydrolysis by VIM-2; format: biochemical, P. aeruginosa
T3 construct: made in house; host or cells: E. coli BL21(DE3) pLys, plasmid pET-24a(+)-blaVIM-2-S21
Description: as §4, §5, §6, §7, §8, §9, §10

[14] = MHA supplemented with 5 μM EDTA
[15] = MHA supplemented with 250 μM Zn2+
[16] = Escherichia coli, MHA supplemented with 5 μM EDTA, read-out: MIC
[17] = Escherichia coli, MHA supplemented with 250 μM Zn2+, read-out: MIC
[18] = MHA supplemented with 5 μM EDTA, read-out: MIC
[19] = MHA supplemented with 250 μM Zn2+, read-out: MIC
[20] = rate constant for breakdown of E*I
[21] = rate constant for formation of E*I

SMILES | MIC ([1]; MHA) | MIC [1, 14] | MIC [1, 15] | MIC ([2]; Escherichia coli, MHA) | MIC [2, 16] | MIC [2, 17] | MIC ([3]; MHA) | MIC [3, 14] | MIC [3, 15] | MIC ([4]; MHA) | MIC [4, 14] | MIC [4, 15] | rate of hydrolysis (initial velocity) in periplasma [5] | MIC ([6]; MHA) | MIC [6, 14] | MIC [6, 15] | MIC ([7]; MHA) | MIC [7, 14] | MIC [7, 15] | rate of hydrolysis (initial velocity) in periplasma [8] | other results
CO/N=C(\C(=O)N[C@@H]1C(=O)N2C(C(=O)[O-])=C(C[N+]3(C)CCCC3)CS[C@H]12)c1csc(N)n1 [Cefepime] | 16 µg/mL (≈ 33.3 µM) | 16 µg/mL (≈ 33.3 µM) | 32 µg/mL (≈ 66.6 µM) | ≤ 0.5 µg/mL | 0.5 µg/mL (≈ 1.04 µM) | 0.5 µg/mL (≈ 1.04 µM) | 0.03 µg/mL (≈ 0.0624 µM) | ≤ 0.25 µg/mL | ≤ 0.25 µg/mL | 0.5 µg/mL (≈ 1.04 µM) | ≤ 0.25 µg/mL | ≤ 0.25 µg/mL | 5.3e-07 M/s | 8 µg/mL (≈ 16.6 µM) | 8 µg/mL (≈ 16.6 µM) | 8 µg/mL (≈ 16.6 µM) | 0.25 µg/mL (≈ 0.52 µM) | ≤ 0.25 µg/mL | 0.5 µg/mL (≈ 1.04 µM) | 2.9×10^−7 M^s−1 | MIC ([2]; MHA): 0.5 µg/mL (≈ 1.04 µM); MIC ([9]; MHA): 2 µg/mL (≈ 4.16 µM); MIC [9, 14]: 4 µg/mL (≈ 8.32 µM); MIC [9, 15]: 2 µg/mL (≈ 4.16 µM); MIC ([10]; MHA): 4 µg/mL (≈ 8.32 µM); MIC [10, 18]: 4 µg/mL (≈ 8.32 µM); MIC [10, 19]: 4 µg/mL (≈ 8.32 µM)
O=C(O)[C@@H]1CS[C@H]2CS[C@H](CS)N21 [L-CS319] | – | – | – | – | – | – | – | – | – | – | – | – | – | – | – | – | – | – | – | – | k−2 [11, 20]: 0.001 ± 1 × 10^−3 s^−1; k2 [11, 21]: 0.06 ± 2 × 10^−3 s−1; inhibitory activity towards MBLs after prolonged exposure to oxidative conditions [12]: abolishes the inhibitory activity; Ki ([13]; initial complex EI, NCF as reporter substrate): 3700 ± 300 nM; Ki ([13]; overall dissociation constant of two-step mechanism (E*I)): 40 ± 10 nM; k−2 [13, 20]: 0.0003 ± 1 × 10^−4 s^−1; k2 [13, 21]: 0.03 ± 1 × 10^−3 s^−1
CC(C)(O/N=C(\C(=O)N[C@@H]1C(=O)N2C(C(=O)[O-])=C(C[n+]3ccccc3)CS[C@H]12)c1csc(N)n1)C(=O)O [Ceftazidime] | 128 µg/mL (≈ 234 µM) | 128 µg/mL (≈ 234 µM) | 512 µg/mL (≈ 937 µM) | 16 µg/mL (≈ 29.3 µM) | 16 µg/mL (≈ 29.3 µM) | 32 µg/mL (≈ 58.5 µM) | 0.06 µg/mL (≈ 0.11 µM) | ≤ 1 µg/mL | ≤ 1 µg/mL | 1 µg/mL (≈ 1.83 µM) | ≤ 1 µg/mL | ≤ 1 µg/mL | 4e-07 M/s | 64 µg/mL (≈ 117 µM) | 64 µg/mL (≈ 117 µM) | 128 µg/mL (≈ 234 µM) | 1 µg/mL (≈ 1.83 µM) | ≤ 1 µg/mL | 4 µg/mL (≈ 7.32 µM) | measurable rates of hydrolysis were not obtained | MIC ([9]; MHA): 128 µg/mL (≈ 234 µM); MIC [9, 14]: 64 µg/mL (≈ 117 µM); MIC [9, 15]: 256 µg/mL (≈ 468 µM); MIC ([10]; MHA): 64 µg/mL (≈ 117 µM); MIC [10, 18]: 32 µg/mL (≈ 58.5 µM); MIC [10, 19]: 128 µg/mL (≈ 234 µM)
